The subject of experiment [1] is human cervical tumor cell line HeLa (ATCC CCL-2). As to the kind of experiment: SAC-Formation - Nocodazole-Induced Assay. It is filed as cell-based. As to conditions: Homo sapiens, HeLa, 24 h, HeLa cells, nocodazole 0.1 μg/ml together with test compound, decrease of mitotic cells (phospho-histone H3 Ser10). The method in brief:
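HeLa cells, plated overnight, were treated 24 h at 37 °C with nocodazole (0.1 μg/ml final) plus test compound (0.005–20 μM, 0.5% DMSO) added at the same time. After fixation, anti-phospho-histone H3 Ser10 and Hoechst staining gave the mitotic cell fraction by imaging. Values came from four-parameter Hill fits.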

Experiment [2] has as its target T1, CDK2/CycE (Homo sapiens, UniProt P24941).
T1 construct: GST; purchased ProQinase GmbH (Freiburg, Germany); host or cells: insect cells (Sf9)
As to the kind of experiment: CDK2/CycE kinase assay (TR-FRET). It is filed as biochemical. As to conditions: avg, read-out: CDK2 avg (IC50 [mol/l]). The method, boiled down:
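GST-tagged human CDK2 and CycE from Sf9 cells, preincubated 15 min with compound, then 25 min at 22° C. with 10 μM ATP and 0.75 μM biotinylated Rb-derived peptide (final). Phospho-substrate read by TR-FRET (anti-pRB pSer807/pSer811, Eu anti-mouse IgG, streptavidin-XL665), 665/620 nm ratio, normalised to no-inhibitor and no-enzyme controls.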
For orientation: Time-resolved FRET reads energy transfer from a long-lived donor to a nearby acceptor.

As to `Cc1nsc(Nc2cnc(C(F)(F)F)cn2)c1C(=O)Nc1ccc(F)c(OC2CCN(CC(F)F)C2)c1` (centres unmarked) [Example 314, N-(3-{[1-(2,2-difluoroethyl)pyrrolidin-3-yl]oxy}-4-fluorophenyl)-3-methyl-5-{[5-(trifluoromethyl)pyrazin-2-yl]amino}-1,2-thiazole-4-carboxamide], the IC50 in experiment [1] was 53 nM; in experiment [2], at least 20000 nM.
In the case of `Cc1nsc(Nc2cnc(C(F)(F)F)cn2)c1C(=O)Nc1ccc(F)c(OC2CCN(CC(F)(F)F)C2)c1` (centres unmarked) [Example 315, N-(4-fluoro-3-{[1-(2,2,2-trifluoroethyl)pyrrolidin-3-yl]oxy}phenyl)-3-methyl-5-{[5-(trifluoromethyl)pyrazin-2-yl]amino}-1,2-thiazole-4-carboxamide], the IC50 in experiment [1] was 4.3 nM; in experiment [2] it was at least 20000 nM.
As to `Cc1nsc(Nc2cnc(C(F)(F)F)cn2)c1C(=O)Nc1ccc(F)c(OCC2CCN(CC(F)F)C2)c1` (centres unmarked) [Example 316, N-(3-{[1-(2,2-difluoroethyl)pyrrolidin-3-yl]methoxy}-4-fluorophenyl)-3-methyl-5-{[5-(trifluoromethyl)pyrazin-2-yl]amino}-1,2-thiazole-4-carboxamide], the IC50 in experiment [1] was 28 nM; in experiment [2], at least 20000 nM.
For the compound `Cc1nsc(Nc2cnc(C(F)(F)F)cn2)c1C(=O)Nc1ccc(F)c(OCC2CCN(CCF)C2)c1` (centres unmarked) [Example 317, N-(4-fluoro-3-{[1-(2-fluoroethyl)pyrrolidin-3-yl]methoxy}phenyl)-3-methyl-5-{[5-(trifluoromethyl)pyrazin-2-yl]amino}-1,2-thiazole-4-carboxamide], the IC50 in experiment [1] is 88 nM; in experiment [2], over 20000 nM.
As to `Cc1nsc(Nc2cnc(C(F)(F)F)cn2)c1C(=O)Nc1ccc(F)c(OCC2CCN(C(CF)CF)C2)c1` (centres unmarked) [Example 320, N-(3-{[1-(1,3-difluoropropan-2-yl)pyrrolidin-3-yl]methoxy}-4-fluorophenyl)-3-methyl-5-{[5-(trifluoromethyl)pyrazin-2-yl]amino}-1,2-thiazole-4-carboxamide], the IC50 is 55 nM in experiment [1] and at least 20000 nM in experiment [2].
For `Cc1nsc(Nc2cnc(C(F)(F)F)cn2)c1C(=O)Nc1ccc(OCCNCCF)nc1` [Example 321, N-(6-{2-[(2-fluoroethyl)amino]ethoxy}pyridin-3-yl)-3-methyl-5-{[5-(trifluoromethyl)pyrazin-2-yl]amino}-1,2-thiazole-4-carboxamide] the same measures were 140 nM and at least 20000 nM.
Regarding `Cc1nsc(Nc2cnc(C(F)(F)F)cn2)c1C(=O)Nc1ccc(OCCNCC(F)(F)F)nc1` [Example 322, 3-methyl-N-(6-{2-[(2,2,2-trifluoroethyl)amino]ethoxy}pyridin-3-yl)-5-{[5-(trifluoromethyl)pyrazin-2-yl]amino}-1,2-thiazole-4-carboxamide], the IC50 in experiment [1] is 69 nM; in experiment [2] it was at least 20000 nM.

Values taken from patent US20170334899A1, “AMINO-SUBSTITUTED ISOTHIAZOLES” (Bayer Pharma Aktiengesellschaft, priority 2014, published 2017).
